# Laboratory results taken from article PMC2784226, “Degradation of Host Sphingomyelin Is Essential for Leishmania Virulence” (PLoS Pathogens, 2009).
# Molecular target: T1, ScISC1 (Saccharomyces cerevisiae, UniProt P40015)
# T1 construct: gene ISC1; full-length ORF expressed in L. major iscl- null mutant; whole cell lysate
# Assay: TLC of NBD-ceramide, intact parasites and whole cell lysate
# Assay type: cell-based
# Details: labelled compound; expressed in iscl- null mutant
# T1 sequence (P40015 whole entry): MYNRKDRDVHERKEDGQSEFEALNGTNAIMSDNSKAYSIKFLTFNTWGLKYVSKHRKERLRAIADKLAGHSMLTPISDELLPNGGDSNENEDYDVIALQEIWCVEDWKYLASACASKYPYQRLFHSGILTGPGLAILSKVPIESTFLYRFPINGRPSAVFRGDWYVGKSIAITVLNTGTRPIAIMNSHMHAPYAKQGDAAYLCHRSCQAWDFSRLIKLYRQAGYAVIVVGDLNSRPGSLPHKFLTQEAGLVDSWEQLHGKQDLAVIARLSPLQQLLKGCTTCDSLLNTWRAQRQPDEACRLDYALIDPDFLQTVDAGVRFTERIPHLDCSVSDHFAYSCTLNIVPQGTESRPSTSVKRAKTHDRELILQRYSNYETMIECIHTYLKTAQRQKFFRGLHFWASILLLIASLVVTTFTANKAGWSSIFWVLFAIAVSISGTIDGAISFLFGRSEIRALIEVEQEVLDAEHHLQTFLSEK
compound,measurement,value
"CCCCCCCCCCCCC/C=C/[C@@H](O)[C@H](COP(=O)([O-])OCC[N+](C)(C)C)NC(=O)CCCCCNc1ccc([N+](=O)[O-])c2nonc12 [NBD C6-sphingomyelin, N-[6-[(7-nitro-2-1,3-benzoxadiazol-4-yl)amino]hexanoyl]-sphingosine-1-phosphocholine]","TLC of NBD-ceramide, intact parasites and whole cell lysate",expression of ScISC1 restored the ability to degrade sphingomyelin in iscl^−
